Data as given in patent US10947201B2, “Certain chemical entities, compositions, and methods” (NEUPHARMA, INC., priority 2015, dated 2021).

Columns and labels:
Type in all cases: biochemical
Settings in all cases: for inhibition at 0.1 µM: compound at 100 nM, [ATP] = Km
EGFR (ErbB1) = target: T1, EGFR (ErbB1) (Homo sapiens, UniProt P00533); test: Z'-LYTE kinase inhibition assay (Invitrogen), EGFR
T1 construct: purchased Invitrogen
Description: (§1) Inhibitory activities of compounds against BTK, EGFR and EGFR mutants (EGFR L858R/T790M) were measured by Invitrogen using Z′-LYTE® Method as briefly described in the following.
(§2) Test Compounds are screened in 1% DMSO (final) in the well. For 10 point titrations, 3-fold serial dilutions are conducted from the starting concentration. All ATP Solutions are diluted to a 4× working concentration in Kinase Buffer (50 mM HEPES pH 7.5, 0.01% BRIJ-35, 10 mM MgCl2, 1 mM EGTA). Peptide/Kinase Mixtures are diluted to a 2× working concentration in the appropriate Kinase Buffers as described below.
(i) Peptide/Kinase Mixtures for measurement of EGFR (ErbB1):
The 2×EGFR (ErbB1)/Tyr 04 mixture is prepared in 50 mM HEPES pH 7.5, 0.01% BRIJ-35, 10 mM MgCl2, 4 mM MnCl2, 1 mM EGTA, 2 mMDTT. The final 10 μL Kinase Reaction consists of 1.1-5.25 ng EGFR (ErbB1) and 2 μM Tyr 04 in 50 mM HEPES pH 7.5, 0.01% BRIJ-35, 10 mM MgCl2, 2 mM MnCl2, 1 mM EGTA, 1 mM DTT. After the 1 hour Kinase Reaction incubation, 5 μL of a 1:64 dilution of DevelopmentReagent B is added.
(§3) Reaction starts by 30-second shaking of mixture consisting of 2.5 μL 4× test compound, 5 μL 2× kinase reaction mixture and 2.5 μL 4×ATP Solution on Bar-coded Corning, low volume NBS, black 384-well plate (Corning Cat. #3676). Then the mixture is incubated for 60-minute at room temperature for the kinase reaction, followed by addition of 5 μL of a 1:1024 dilution of development reagent A and 30-second plate shake. The mixture is then incubated for another 60-minute at room temperature for development reaction. Finally fluorescence is read by plate reader. […] The scale utilized in Tables 2 and 3 is as follows: ++ more than 50% inhibition and + less than 50% inhibition.
(§4) To determine IC50 of a compound against EGFR or EGFR mutants, a series of concentrations of the compound were tested for the inhibition. IC50 was calculated by plotting the concentration of compound vs the percentage of inhibition in treated wells using GraphPad Prism 5. […] The scale utilized in Table 4 is as follows: ++ less than 100 nM and + greater than 100 nM.

EGFR (ErbB1) T790M L858R = target: T2, EGFR (ErbB1) T790M L858R (Homo sapiens, UniProt P00533, L858R/T790M); test: Z'-LYTE kinase inhibition assay (Invitrogen), EGFR L858R/T790M
T2 construct: purchased Invitrogen
T2 sequence (P00533 25-1210 T790M/L858R): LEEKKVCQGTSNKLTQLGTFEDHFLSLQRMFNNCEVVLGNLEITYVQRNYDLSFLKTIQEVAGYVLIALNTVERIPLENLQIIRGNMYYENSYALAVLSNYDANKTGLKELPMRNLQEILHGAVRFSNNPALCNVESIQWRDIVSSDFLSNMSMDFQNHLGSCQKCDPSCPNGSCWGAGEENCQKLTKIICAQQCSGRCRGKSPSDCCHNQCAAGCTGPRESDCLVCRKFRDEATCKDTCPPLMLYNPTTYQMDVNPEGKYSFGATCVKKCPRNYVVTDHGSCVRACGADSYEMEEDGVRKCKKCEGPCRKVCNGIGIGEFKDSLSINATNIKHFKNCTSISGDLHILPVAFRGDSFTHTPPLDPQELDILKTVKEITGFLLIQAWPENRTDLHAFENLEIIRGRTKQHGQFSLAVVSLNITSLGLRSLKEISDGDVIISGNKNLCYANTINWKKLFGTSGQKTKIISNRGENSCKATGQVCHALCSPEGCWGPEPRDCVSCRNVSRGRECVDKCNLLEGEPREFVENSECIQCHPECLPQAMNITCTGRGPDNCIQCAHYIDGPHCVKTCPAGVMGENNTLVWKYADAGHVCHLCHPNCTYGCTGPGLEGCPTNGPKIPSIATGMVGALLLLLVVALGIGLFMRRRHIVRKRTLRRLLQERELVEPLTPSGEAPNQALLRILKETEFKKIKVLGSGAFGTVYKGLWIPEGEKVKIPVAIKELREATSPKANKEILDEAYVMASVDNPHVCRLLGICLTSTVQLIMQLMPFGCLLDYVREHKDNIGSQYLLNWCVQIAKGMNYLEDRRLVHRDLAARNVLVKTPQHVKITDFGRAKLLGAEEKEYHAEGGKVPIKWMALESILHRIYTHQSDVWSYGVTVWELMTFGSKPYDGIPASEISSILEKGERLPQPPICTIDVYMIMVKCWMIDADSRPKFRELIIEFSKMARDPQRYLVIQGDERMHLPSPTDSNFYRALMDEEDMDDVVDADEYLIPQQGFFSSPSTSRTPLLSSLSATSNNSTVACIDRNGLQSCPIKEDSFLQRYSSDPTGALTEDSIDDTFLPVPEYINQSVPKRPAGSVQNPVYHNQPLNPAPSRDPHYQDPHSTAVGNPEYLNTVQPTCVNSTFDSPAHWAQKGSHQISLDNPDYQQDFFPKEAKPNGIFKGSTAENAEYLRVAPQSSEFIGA
Description: as §1, §2
(iv) Peptide/Kinase Mixtures for measurement of EGFR (ErbB1) T790M L858R:
The 2×EGFR (ErbB1) T790M L858R/Tyr 04 mixture is prepared in 50 mM HEPES pH 6.5, 0.01% BRIJ-35, 10 mM MgCl2, 1 mM EGTA, 0.02% NaN3. The final 10 μL Kinase Reaction consists of 0.38-4.22 ng EGFR (ErbB1) T790M L858R and 2 μM Tyr 04 in 50 mM HEPES pH 7.0, 0.01% BRIJ-35, 10 mM MgCl2, 1 mM EGTA, 0.01% NaN3. After the 1 hour Kinase Reaction incubation, 5 μL of a 1:64 dilution of Development Reagent B is added.
as §3, §4

BTK = target: T3, BTK (Homo sapiens, UniProt Q06187); test: Z'-LYTE kinase inhibition assay (Invitrogen), BTK
T3 construct: purchased Invitrogen
T3 sequence (Q06187 whole entry): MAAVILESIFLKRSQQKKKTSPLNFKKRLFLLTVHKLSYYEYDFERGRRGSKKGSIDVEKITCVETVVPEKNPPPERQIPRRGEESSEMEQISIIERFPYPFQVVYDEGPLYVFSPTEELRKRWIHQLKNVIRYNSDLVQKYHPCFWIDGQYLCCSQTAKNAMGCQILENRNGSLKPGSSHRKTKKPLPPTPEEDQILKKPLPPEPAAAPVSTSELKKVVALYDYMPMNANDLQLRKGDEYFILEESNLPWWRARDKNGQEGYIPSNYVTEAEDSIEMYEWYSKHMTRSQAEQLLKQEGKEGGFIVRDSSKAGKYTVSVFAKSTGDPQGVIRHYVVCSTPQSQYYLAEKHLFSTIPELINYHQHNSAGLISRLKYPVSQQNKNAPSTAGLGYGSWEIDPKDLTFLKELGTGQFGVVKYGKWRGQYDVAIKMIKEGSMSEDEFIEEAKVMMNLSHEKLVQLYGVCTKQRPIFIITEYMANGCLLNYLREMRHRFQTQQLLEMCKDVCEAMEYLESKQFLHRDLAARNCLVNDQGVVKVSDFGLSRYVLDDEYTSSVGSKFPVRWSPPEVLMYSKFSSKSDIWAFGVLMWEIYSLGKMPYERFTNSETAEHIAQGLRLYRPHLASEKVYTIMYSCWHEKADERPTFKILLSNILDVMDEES
Description: as §1, §2
(v) Peptide/Kinase Mixtures for measurement of BTK:
The 2×BTK/Tyr 01 mixture is prepared in 50 mM HEPES pH 7.5, 0.01% BRIJ-35, 10 mM MgCl2, 1 mM EGTA. The final 10 μL Kinase Reaction consists of 1.04-10.4 ng BTK and 2 μM Tyr 01 in 50 mM HEPES pH 7.5, 0.01% BRIJ-35, 10 mM MgCl2, 1 mM EGTA. After the 1 hour Kinase Reaction incubation, 5 μL of a 1:256 dilution of Development Reagent B is added.
as §3, §4

T1 sequence (P00533 25-1210): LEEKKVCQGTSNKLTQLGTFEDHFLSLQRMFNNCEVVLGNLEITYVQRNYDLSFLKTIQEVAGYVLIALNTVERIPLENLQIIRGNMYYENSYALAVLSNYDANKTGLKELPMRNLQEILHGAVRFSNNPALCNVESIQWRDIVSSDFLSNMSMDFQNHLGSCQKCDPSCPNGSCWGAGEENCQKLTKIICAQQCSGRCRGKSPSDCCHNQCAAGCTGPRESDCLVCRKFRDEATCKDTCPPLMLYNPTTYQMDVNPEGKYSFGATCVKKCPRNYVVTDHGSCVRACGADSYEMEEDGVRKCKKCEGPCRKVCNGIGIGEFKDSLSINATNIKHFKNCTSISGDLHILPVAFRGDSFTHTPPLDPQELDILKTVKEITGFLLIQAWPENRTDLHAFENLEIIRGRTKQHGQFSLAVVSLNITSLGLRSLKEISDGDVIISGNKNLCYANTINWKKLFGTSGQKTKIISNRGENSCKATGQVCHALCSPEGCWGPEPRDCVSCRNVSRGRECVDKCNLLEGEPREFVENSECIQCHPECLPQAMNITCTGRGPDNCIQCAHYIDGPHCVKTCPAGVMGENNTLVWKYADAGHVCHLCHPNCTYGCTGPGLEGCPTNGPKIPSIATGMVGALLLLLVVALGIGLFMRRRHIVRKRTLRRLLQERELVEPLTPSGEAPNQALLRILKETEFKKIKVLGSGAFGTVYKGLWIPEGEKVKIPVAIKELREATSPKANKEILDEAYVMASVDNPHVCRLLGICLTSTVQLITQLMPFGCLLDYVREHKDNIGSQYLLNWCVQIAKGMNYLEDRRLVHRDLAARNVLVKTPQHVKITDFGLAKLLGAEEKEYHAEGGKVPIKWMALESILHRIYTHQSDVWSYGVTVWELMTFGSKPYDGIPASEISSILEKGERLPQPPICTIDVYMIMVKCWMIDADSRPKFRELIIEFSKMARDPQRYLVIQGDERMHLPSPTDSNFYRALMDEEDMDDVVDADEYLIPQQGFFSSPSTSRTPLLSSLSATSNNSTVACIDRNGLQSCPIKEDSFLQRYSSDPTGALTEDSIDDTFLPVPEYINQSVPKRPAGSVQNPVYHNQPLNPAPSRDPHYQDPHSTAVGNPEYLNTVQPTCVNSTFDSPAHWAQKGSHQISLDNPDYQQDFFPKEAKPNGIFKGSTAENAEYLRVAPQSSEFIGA

Row | Structure (SMILES) | inhibition at 0.1 µM (EGFR (ErbB1)) [%] | inhibition at 0.1 µM (EGFR (ErbB1) T790M L858R) [%] | inhibition at 0.1 µM (BTK) [%] | IC50 (EGFR (ErbB1)) [nM] | IC50 (EGFR (ErbB1) T790M L858R) [nM] | IC50 (BTK) [nM]
1 | C=CC(=O)N1CCCC(n2cnc3cnc(Nc4ccc(N5CCN(CCO)CC5)cc4F)nc32)C1 (centres unmarked) [Example A016, 1-(3-(2-((2-fluoro-4-(4-(2-hydroxyethyl)piperazin-1-yl)phenyl)amino)-9H-purin-9-yl)piperidin-1-yl)prop-2-en-1-one] | < 50 | < 50 | < 50 |  |  | 
2 | C=CC(=O)Nc1cccc(-n2cnc3cnc(Nc4ccc(N5CCN(C)CC5)cc4)nc32)c1 [Example A002, N-(3-(2-((4-(4-methylpiperazin-1-yl)phenyl)amino)-9H-purin-9-yl)phenyl)acrylamide] |  |  | > 50 | > 100 | > 100 | < 100
3 | C=CC(=O)N1CCCC(n2cnc3cnc(Nc4ccc(N5CCN(CCO)CC5)c(F)c4F)nc32)C1 (centres unmarked) [Example A024, 1-(3-(2-((2,3-difluoro-4-(4-(2-hydroxyethyl)piperazin-1-yl)phenyl)amino)-9H-purin-9-yl)piperidin-1-yl)prop-2-en-1-one] | < 50 | < 50 | < 50 |  |  | 
4 | C=CC(=O)N1CCCC(n2cnc3cnc(Nc4ccc(N5CCN(C)CC5)c(F)c4F)nc32)C1 (centres unmarked) [Example A023, 1-(3-(2-((2,3-difluoro-4-(4-methylpiperazin-1-yl)phenyl)amino)-9H-purin-9-yl)piperidin-1-yl)prop-2-en-1-one] | < 50 | < 50 | < 50 |  |  | 
5 | C=CC(=O)Nc1cccc(-n2cnc3cnc(Nc4ccc(N5CCN(CCO)CC5)c(F)c4F)nc32)c1 [Example A014, N-(3-(2-((2,3-difluoro-4-(4-(2-hydroxyethyl)piperazin-1-yl)phenyl)amino)-9H-purin-9-yl)phenyl)acrylamide] | < 50 | < 50 | < 50 |  |  | 
6 | C=CC(=O)N1CCCC(n2cnc3cnc(Nc4ccc(N5CCN(CCO)CC5)c(F)c4)nc32)C1 (centres unmarked) [Example A012] | < 50 | < 50 | > 50 |  |  | 
7 | C=CC(=O)Nc1cccc(-n2cnc3cnc(Nc4ccc(N5CCN(CCO)CC5)cc4)nc32)c1 [Example A015, N-(3-(2-((4-(4-(2-hydroxyethyl)piperazin-1-yl)phenyl)amino)-9H-purin-9-yl)phenyl)acrylamide] | < 50 | < 50 | > 50 |  |  | 
8 | C=CC(=O)Nc1cccc(-n2cnc3cnc(Nc4ccc(N5CCN(CCO)CC5)c(F)c4)nc32)c1 [Example A020] | < 50 | > 50 | > 50 |  |  | 
9 | C=CC(=O)Nc1cccc(-n2cnc3cnc(Nc4ccc(N5CCN(C)CC5)c(F)c4)nc32)c1 [Example A010, N-(3-(2-((3-fluoro-4-(4-methylpiperazin-1-yl)phenyl)amino)-9H-purin-9-yl)phenyl)acrylamide] |  |  | > 50 | > 100 | > 100 | < 100
10 | C=CC(=O)N1CCCC(n2cnc3cnc(Nc4ccc(N5CCN(CCO)CC5)cc4)nc32)C1 (centres unmarked) [Example A013, 1-(3-(2-((4-(4-(2-hydroxyethyl)piperazin-1-yl)phenyl)amino)-9H-purin-9-yl)piperidin-1-yl)prop-2-en-1-one] | < 50 | < 50 | > 50 |  |  | 
11 | C=CC(=O)N1CCC(n2cnc3cnc(Nc4ccc(N5CCN(CCO)CC5)c(F)c4F)nc32)C1 (centres unmarked) [Example A022] | < 50 | < 50 | < 50 |  |  | 
